Measured values: ChEMBL document CHEMBL4828725 (Eur J Med Chem, 2021)
pIC50: −log10 of the molar value.

What was measured:
[1] = Inhibition of rice alpha-glucosidase using p-nitrophenyl glycoside as substrate assessed as release of p-nitrophenol measured by spectrometric assay; set-up: species or system Oryza sativa; conditions: read-out: IC50
[2] = Inhibition of rat intestinal maltase using maltose as substrate assessed as release of D-glucose measured by spectrometric assay
[3] = target: T1, Sucrase-isomaltase, intestinal (Rattus norvegicus, UniProt P23739); test: Inhibition of rat intestinal sucrase using p-nitrophenyl glycoside as substrate assessed as release of p-nitrophenol measured by spectrometric assay; conditions: read-out: IC50
[4] = target: T1, Sucrase-isomaltase, intestinal; test: Inhibition of rat intestinal isomaltase using p-nitrophenyl glycoside as substrate assessed as release of p-nitrophenol measured by spectrometric assay; conditions: for pIC50: read-out: IC50
[5] = Inhibition of almond beta-glucosidase using p-nitrophenyl glycoside as substrate assessed as release of p-nitrophenol measured by spectrometric assay; set-up: species or system Prunus dulcis
Prunus dulcis = test: Inhibition of almond beta-glucosidase using p-nitrophenyl glycoside as substrate assessed as release of p-nitrophenol at 1000 uM measured by spectrometric assay relative to control
[6] = Inhibition of bovine liver beta-glucosidase using p-nitrophenyl glycoside as substrate assessed as release of p-nitrophenol measured by spectrometric assay; set-up: species or system Bos taurus; conditions: for pIC50: read-out: IC50
Alpha-galactosidase = Alpha-galactosidase (Coffea arabica, UniProt Q42656); test: Inhibition of coffee beans alpha-galactosidase using p-nitrophenyl glycoside as substrate assessed as release of p-nitrophenol measured by spectrometric assay; conditions: for pIC50: read-out: IC50
[7] = target: Alpha-galactosidase (Coffea arabica) (UniProt Q42656); test: Inhibition of coffee beans alpha-galactosidase using p-nitrophenyl glycoside as substrate assessed as release of p-nitrophenol at 1000 uM measured by spectrometric assay relative to control
[8] = Inhibition of bovine liver beta-galactosidase using p-nitrophenyl glycoside as substrate assessed as release of p-nitrophenol measured by spectrometric assay; type: tissue-based, Bos taurus; conditions: for pIC50: read-out: IC50
[9] = Inhibition of jack bean alpha-mannosidase using p-nitrophenyl glycoside as substrate assessed as release of p-nitrophenol measured by spectrometric assay; set-up: species or system Canavalia ensiformis
[10] = target: T2, Alpha-mannosidase (Canavalia ensiformis) (UniProt C0HJB3); test: Inhibition of jack bean alpha-mannosidase using p-nitrophenyl glycoside as substrate assessed as release of p-nitrophenol at 1000 uM measured by spectrometric assay relative to control
T2 sequence (whole entry): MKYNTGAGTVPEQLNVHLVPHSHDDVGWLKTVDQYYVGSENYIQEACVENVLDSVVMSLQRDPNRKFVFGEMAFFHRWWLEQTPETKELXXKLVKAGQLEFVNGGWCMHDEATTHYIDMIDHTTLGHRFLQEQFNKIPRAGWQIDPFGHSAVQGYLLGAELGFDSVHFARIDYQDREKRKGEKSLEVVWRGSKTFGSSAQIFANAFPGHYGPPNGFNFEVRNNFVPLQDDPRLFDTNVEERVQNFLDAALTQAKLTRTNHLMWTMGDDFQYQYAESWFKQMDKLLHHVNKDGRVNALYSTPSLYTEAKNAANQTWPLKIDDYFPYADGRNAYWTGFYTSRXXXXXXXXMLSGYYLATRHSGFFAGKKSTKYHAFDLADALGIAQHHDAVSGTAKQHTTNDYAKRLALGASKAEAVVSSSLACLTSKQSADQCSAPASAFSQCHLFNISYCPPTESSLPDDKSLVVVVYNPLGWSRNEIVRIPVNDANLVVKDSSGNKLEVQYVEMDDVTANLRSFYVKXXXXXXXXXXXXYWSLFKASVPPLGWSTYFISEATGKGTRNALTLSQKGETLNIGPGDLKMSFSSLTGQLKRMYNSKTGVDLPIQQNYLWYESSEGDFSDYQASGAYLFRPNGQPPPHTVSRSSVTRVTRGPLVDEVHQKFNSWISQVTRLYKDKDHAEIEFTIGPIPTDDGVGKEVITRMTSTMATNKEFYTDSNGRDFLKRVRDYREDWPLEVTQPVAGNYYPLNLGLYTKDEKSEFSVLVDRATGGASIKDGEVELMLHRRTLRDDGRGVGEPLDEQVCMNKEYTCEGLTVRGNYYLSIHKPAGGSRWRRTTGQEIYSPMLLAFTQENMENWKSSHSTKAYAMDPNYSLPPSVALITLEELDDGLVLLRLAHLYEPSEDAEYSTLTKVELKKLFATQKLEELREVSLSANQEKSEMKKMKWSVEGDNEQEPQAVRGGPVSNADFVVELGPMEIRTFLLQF

[11] = Inhibition of snail beta-mannosidase using p-nitrophenyl glycoside as substrate assessed as release of p-nitrophenol measured by spectrometric assay; set-up: species or system Helix pomatia
Helix pomatia = test: Inhibition of snail beta-mannosidase using p-nitrophenyl glycoside as substrate assessed as release of p-nitrophenol at 1000 uM measured by spectrometric assay relative to control
[12] = target: T3, Tissue alpha-L-fucosidase (Bos taurus, UniProt Q2KIM0); test: Inhibition of bovine kidney alpha-L-fucosidase using p-nitrophenyl glycoside as substrate assessed as release of p-nitrophenol measured by spectrometric assay
T3 sequence (Q2KIM0 whole entry): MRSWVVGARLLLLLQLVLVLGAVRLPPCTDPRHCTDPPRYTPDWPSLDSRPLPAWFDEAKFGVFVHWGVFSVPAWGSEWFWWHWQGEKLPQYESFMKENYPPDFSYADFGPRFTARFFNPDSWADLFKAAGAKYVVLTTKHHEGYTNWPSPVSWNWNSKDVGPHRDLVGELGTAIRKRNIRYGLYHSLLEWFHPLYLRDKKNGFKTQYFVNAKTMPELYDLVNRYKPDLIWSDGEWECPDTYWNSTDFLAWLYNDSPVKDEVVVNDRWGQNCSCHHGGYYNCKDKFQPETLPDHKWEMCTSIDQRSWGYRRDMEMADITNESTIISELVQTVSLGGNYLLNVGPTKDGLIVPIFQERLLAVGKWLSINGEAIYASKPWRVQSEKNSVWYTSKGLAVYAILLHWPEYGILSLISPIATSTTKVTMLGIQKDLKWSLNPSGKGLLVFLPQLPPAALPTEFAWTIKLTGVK

[13] = target: T4, Tissue alpha-L-fucosidase (Bos taurus) (UniProt Q2KIM0); test: Inhibition of bovine kidney alpha-L-fucosidase using p-nitrophenyl glycoside as substrate assessed as release of p-nitrophenol at 1000 uM measured by spectrometric assay relative to control; type: tissue-based
T4 sequence (whole entry): T3 sequence (Q2KIM0 whole entry)

[14] = Inhibition of porcine kidney alpha-trehalase using p-nitrophenyl glycoside as substrate assessed as release of p-nitrophenol measured by spectrometric assay; set-up: species or system Sus scrofa
Sus scrofa = species: Sus scrofa; test: Inhibition of porcine kidney alpha-trehalase using p-nitrophenyl glycoside as substrate assessed as release of p-nitrophenol at 1000 uM measured by spectrometric assay relative to control
[15] = Inhibition of Aspergillus niger amyloglucosidase using p-nitrophenyl glycoside as substrate assessed as release of p-nitrophenol measured by spectrometric assay
Aspergillus niger = test: Inhibition of Aspergillus niger amyloglucosidase using p-nitrophenyl glycoside as substrate assessed as release of p-nitrophenol at 1000 uM measured by spectrometric assay relative to control
[16] = Inhibition of Penicillium decumbens alpha-L-rhamnosidase using p-nitrophenyl glycoside as substrate assessed as release of p-nitrophenol measured by spectrometric assay
Penicillium decumbens = test: Inhibition of Penicillium decumbens alpha-L-rhamnosidase using p-nitrophenyl glycoside as substrate assessed as release of p-nitrophenol at 1000 uM measured by spectrometric assay relative to control
Beta-glucuronidase = Beta-glucuronidase (Escherichia coli (strain K12), UniProt P05804); test: Inhibition of Escherichia coli beta-glucuronidase using p-nitrophenyl glycoside as substrate assessed as release of p-nitrophenol measured by spectrometric assay
[17] = target: Beta-glucuronidase (Escherichia coli (strain K12)) (UniProt P05804); test: Inhibition of Escherichia coli beta-glucuronidase using p-nitrophenyl glycoside as substrate assessed as release of p-nitrophenol at 1000 uM measured by spectrometric assay relative to control
Bos taurus [18] = species: Bos taurus; test: Inhibition of bovine liver beta-glucosidase using p-nitrophenyl glycoside as substrate assessed as release of p-nitrophenol at 1000 uM measured by spectrometric assay relative to control; type: tissue-based
Bos taurus [19] = species: Bos taurus; test: Inhibition of bovine liver beta-galactosidase using p-nitrophenyl glycoside as substrate assessed as release of p-nitrophenol at 1000 uM measured by spectrometric assay relative to control

T1 sequence (P23739 1-1013 limits assumed): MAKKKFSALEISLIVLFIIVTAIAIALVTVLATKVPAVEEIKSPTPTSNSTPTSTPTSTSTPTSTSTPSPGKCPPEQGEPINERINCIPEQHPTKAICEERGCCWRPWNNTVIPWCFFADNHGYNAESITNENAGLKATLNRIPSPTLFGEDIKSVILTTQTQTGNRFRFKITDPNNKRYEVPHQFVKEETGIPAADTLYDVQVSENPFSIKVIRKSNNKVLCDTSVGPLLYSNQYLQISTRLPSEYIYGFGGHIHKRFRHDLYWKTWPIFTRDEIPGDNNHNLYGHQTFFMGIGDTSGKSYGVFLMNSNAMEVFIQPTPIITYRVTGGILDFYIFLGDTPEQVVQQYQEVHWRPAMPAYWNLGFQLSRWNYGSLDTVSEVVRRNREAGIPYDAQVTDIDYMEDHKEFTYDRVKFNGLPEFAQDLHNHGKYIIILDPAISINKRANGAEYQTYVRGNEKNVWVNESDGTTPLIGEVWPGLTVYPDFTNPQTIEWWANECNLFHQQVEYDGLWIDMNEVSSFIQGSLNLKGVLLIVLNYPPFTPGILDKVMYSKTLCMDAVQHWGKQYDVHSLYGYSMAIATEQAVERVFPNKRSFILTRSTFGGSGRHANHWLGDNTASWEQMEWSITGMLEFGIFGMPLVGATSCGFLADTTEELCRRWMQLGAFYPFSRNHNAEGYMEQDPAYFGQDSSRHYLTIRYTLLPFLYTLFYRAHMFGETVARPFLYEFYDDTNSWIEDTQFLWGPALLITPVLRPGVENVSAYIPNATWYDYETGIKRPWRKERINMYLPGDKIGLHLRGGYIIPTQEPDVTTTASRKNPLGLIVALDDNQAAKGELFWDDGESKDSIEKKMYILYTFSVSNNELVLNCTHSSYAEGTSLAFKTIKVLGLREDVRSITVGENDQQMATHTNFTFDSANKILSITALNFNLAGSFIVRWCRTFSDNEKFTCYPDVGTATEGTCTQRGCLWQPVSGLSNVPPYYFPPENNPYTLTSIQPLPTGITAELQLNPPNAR
T1 sequence (P23739 1014-1841 limits assumed): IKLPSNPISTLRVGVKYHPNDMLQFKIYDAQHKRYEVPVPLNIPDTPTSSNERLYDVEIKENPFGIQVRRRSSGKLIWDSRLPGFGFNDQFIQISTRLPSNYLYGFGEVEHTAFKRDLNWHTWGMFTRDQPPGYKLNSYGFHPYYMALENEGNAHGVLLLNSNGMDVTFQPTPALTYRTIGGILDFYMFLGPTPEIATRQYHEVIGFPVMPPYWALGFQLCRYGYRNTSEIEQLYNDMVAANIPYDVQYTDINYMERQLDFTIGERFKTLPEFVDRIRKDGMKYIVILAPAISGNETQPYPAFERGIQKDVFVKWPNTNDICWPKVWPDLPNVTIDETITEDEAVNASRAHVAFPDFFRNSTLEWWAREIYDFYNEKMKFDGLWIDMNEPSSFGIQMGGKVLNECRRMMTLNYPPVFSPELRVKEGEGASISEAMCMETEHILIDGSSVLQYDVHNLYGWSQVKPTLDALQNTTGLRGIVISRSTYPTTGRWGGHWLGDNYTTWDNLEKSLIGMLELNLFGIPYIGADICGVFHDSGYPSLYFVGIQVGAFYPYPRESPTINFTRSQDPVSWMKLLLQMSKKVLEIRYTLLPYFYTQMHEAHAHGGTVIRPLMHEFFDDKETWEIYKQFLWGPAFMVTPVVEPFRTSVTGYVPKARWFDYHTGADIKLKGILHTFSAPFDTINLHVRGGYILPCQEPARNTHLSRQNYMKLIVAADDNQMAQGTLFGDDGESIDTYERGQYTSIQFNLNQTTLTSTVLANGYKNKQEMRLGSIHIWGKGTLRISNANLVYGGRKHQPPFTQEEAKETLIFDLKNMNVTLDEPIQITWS
Alpha-galactosidase (Coffea arabica), sequence (Q42656 16-378 limits assumed): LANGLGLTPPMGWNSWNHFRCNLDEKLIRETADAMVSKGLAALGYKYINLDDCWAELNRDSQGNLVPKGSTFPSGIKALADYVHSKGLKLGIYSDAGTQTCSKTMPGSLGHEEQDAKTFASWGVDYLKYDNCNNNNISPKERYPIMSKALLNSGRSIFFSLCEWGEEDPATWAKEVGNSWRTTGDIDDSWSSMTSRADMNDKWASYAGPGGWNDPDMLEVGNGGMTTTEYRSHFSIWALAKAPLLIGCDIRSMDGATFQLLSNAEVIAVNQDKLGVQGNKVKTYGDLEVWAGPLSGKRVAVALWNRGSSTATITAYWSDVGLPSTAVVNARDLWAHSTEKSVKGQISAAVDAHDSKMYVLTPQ
Alpha-galactosidase, sequence (Q42656 whole entry): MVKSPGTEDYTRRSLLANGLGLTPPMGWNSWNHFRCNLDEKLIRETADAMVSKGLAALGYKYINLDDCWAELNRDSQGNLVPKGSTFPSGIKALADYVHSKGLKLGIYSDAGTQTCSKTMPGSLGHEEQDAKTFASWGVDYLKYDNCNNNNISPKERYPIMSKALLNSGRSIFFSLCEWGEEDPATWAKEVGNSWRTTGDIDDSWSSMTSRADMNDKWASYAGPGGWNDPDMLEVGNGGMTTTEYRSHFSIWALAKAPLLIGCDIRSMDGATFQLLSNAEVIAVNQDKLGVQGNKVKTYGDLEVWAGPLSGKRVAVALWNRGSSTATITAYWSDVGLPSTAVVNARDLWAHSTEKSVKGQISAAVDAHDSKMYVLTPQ
Beta-glucuronidase (Escherichia coli (strain K12)), sequence (P05804 whole entry, looked up): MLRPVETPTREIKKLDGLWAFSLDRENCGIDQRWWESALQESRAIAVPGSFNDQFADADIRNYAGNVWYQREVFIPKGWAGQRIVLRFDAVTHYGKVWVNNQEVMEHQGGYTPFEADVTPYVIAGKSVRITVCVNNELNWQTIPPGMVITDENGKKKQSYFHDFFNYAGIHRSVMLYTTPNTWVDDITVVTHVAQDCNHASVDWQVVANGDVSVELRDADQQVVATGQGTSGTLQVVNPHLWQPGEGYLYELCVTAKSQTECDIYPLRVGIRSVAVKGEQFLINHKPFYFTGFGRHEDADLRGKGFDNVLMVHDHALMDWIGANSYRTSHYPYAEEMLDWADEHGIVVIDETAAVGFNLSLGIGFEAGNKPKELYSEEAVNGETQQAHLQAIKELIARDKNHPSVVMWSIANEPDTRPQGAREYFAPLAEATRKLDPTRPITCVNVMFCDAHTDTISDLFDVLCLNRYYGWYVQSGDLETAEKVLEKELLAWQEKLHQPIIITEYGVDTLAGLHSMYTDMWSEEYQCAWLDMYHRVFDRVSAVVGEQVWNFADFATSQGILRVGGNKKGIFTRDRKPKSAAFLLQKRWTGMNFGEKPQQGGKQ
Beta-glucuronidase, sequence (P05804 whole entry): as the sequence (P05804 whole entry, looked up) above

Structure (SMILES)	pIC50 [1]	pIC50 [2]	pIC50 [3]	IC50 [5]	inhibition (Prunus dulcis) [%]	IC50 [9]	inhibition [10] [%]	IC50 [11]	inhibition (Helix pomatia) [%]	IC50 [12]	inhibition [13] [%]	IC50 [14]	inhibition (Sus scrofa) [%]	IC50 [15]	inhibition (Aspergillus niger) [%]	IC50 [16]	inhibition (Penicillium decumbens) [%]	IC50 (Beta-glucuronidase)	pIC50 [4]	inhibition [17] [%]	other results
CCCC[C@@]1(CO)NC[C@H](O)[C@@H](O)[C@@H]1O.Cl	4.07	3.96	3.62	Not Active	6.2	Not Active	4.4	Not Active	3	Not Active	16	Not Active	0	Not Active	3.8	Not Active	22.8	Not Active			IC50 [4]: Not Active; pIC50 [6]: 3.83; IC50 (Alpha-galactosidase): Not Active; inhibition [7]: 12.5%; pIC50 [8]: 4.28
CCCCCCCCC[C@@]1(CO)NC[C@H](O)[C@@H](O)[C@@H]1O.Cl	5.48	5.02	4.38	Not Active	32.9	Not Active	0	Not Active	0.6	Not Active	1.5	Not Active	0	Not Active	2.7	Not Active	3.5	Not Active	3.91	38.1	pIC50 [6]: 3.67; IC50 (Alpha-galactosidase): Not Active; inhibition [7]: 15.3%; pIC50 [8]: 4.54
CC[C@]1(CO)NC[C@H](O)[C@@H](O)[C@@H]1O.Cl	7.01	6.96	7.00	Not Active	5.6	Not Active	1.6	Not Active	1.1	Not Active	2.1			Not Active	0	Not Active	0	Not Active	5.92	3.6	IC50 [6]: Not Active; inhibition (Bos taurus [18]): 15.3%; IC50 (Alpha-galactosidase): Not Active; inhibition [7]: 30.1%; IC50 [8]: Not Active; inhibition (Bos taurus [19]): 18.4%; pIC50 ([14]; read-out: IC50): 4.03
CCCCC[C@]1(CO)NC[C@H](O)[C@@H](O)[C@@H]1O.Cl	7.17	7.64	6.64	Not Active	18.8	Not Active	5.5	Not Active	4	Not Active	12.4	Not Active	10.6	Not Active	0.83	Not Active	0	Not Active	6.15	10.8	IC50 [6]: Not Active; inhibition (Bos taurus [18]): 8%; pIC50 (Alpha-galactosidase): 4.08; IC50 [8]: Not Active; inhibition (Bos taurus [19]): 16.1%

These reach a higher pIC50 [1]. Values come first.

pIC50 [1]	pIC50 [2]	pIC50 [3]	IC50 [5]	inhibition (Prunus dulcis) [%]	IC50 [9]	inhibition [10] [%]	IC50 [11]	inhibition (Helix pomatia) [%]	IC50 [12]	inhibition [13] [%]	IC50 [14]	inhibition (Sus scrofa) [%]	IC50 [15]	inhibition (Aspergillus niger) [%]	IC50 [16]	inhibition (Penicillium decumbens) [%]	IC50 (Beta-glucuronidase)	pIC50 [4]	inhibition [17] [%]	Structure (SMILES)	other results
7.43	7.47	6.85	Not Active	11.3	Not Active	5.5	Not Active	0	Not Active	4.3	Not Active	11.7	Not Active	5.4	Not Active	0.6	Not Active	6.26	21.1	CCCCCC[C@]1(CO)NC[C@H](O)[C@@H](O)[C@@H]1O.Cl	IC50 [6]: Not Active; inhibition (Bos taurus [18]): 10.8%; pIC50 (Alpha-galactosidase): 4.12; IC50 [8]: Not Active; inhibition (Bos taurus [19]): 15.5%
7.62	7.15	5.92	Not Active	10	Not Active	7.9	Not Active	1.5	Not Active	16	Not Active	4.8	Not Active	10.7	Not Active	0.3	Not Active	5.11	16.5	CCCCCCCCCCCC[C@]1(CO)NC[C@H](O)[C@@H](O)[C@@H]1O.Cl	IC50 [6]: Not Active; inhibition (Bos taurus [18]): 25%; pIC50 (Alpha-galactosidase): 5.00; IC50 [8]: Not Active; inhibition (Bos taurus [19]): 48.4%
